Results on 44 compounds are retold here after patent US9695193B2, “Inhibitors of Plasmodium falciparum equilibrative nucleoside transporter type I as anti-parasitic compounds” (The Trustees of Columbia University in the City of New York, priority 2013, dated 2017).

In the test the target is T1, PfENT1 (Plasmodium falciparum, UniProt Q8IDM6).
T1 construct: expressed in transfected cells; host or cells: fui1Δ yeast (Saccharomyces cerevisiae), co-expressing GFP
T1 sequence (Q8IDM6 whole entry): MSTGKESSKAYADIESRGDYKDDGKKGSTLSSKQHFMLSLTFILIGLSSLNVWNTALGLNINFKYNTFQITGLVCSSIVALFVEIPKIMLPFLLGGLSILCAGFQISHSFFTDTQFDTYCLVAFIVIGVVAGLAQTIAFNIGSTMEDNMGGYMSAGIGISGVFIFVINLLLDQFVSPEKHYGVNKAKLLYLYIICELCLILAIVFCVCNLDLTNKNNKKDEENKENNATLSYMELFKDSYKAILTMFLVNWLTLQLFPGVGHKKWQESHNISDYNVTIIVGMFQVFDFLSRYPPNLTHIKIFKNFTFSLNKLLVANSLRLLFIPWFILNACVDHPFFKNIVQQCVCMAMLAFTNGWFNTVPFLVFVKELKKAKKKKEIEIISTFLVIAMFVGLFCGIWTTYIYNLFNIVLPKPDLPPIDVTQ
The class given is cell-based. The following applies: primary HTS, compounds at 10 μM, 125 μM 5-FUrd. As for the experimental part: A yeast-based high throughput screening (HTS) assay was used to identify compounds that inhibit PfENT1. The compounds described in this application were identified by screening four commercially available, chemical compound libraries obtained from Dr. Donald Landry's laboratory (Department of Medicine, Columbia University). These libraries contain approximately 80,000 unique chemical entities.
In the primary screen the compounds were tested at a concentration of 10 μM. Hits were identified by the growth of fui1Δ yeast expressing PfENT1 and Green Fluorescent Protein (GFP) in the presence of the cytotoxic nucleoside 5-fluorouridine (5-FUrd). 5-FUrd is transported by PfENT1. PfENT1 expressing fui1Δ yeast will only grow in the presence of 125 μM 5-FUrd if a PfENT1 inhibitor blocks the uptake of 5-FUrd into the yeast. Significant yeast growth in the HTS in 384 well plates was determined by two criteria: 1) turbidity as determined by the optical density at 620 nm (OD620) and 2) GFP fluorescence intensity. […] Hits had to be positive by both criteria.
Consider `CCOc1ccc(N(CC(=O)N2CCN(C)CC2)S(C)(=O)=O)cc1` [compound 50], for which the “Avg Normalized % maximal activity” value is reported as 8.23%.
Regarding `CCOC(=O)c1cc(NC(=O)c2ccco2)ccc1N1CCOCC1` [compound 51, ethyl 5-(2-furoylamino)-2-morpholin-4-ylbenzoate], the “Avg Normalized % maximal activity” value was 8.11%.
With `COC(=O)c1ccccc1NC(=O)c1cccc(NC(=O)C(C)C)c1` [compound 52], the “Avg Normalized % maximal activity” value amounted to 8.03%.
Next, `COCc1cc(C)nc2sc(C(=O)Nc3cccc(OC)c3)c(N)c12` [compound 53, 3-amino-4-(methoxymethyl)-N-(3-methoxyphenyl)-6-methylthieno [2,3-b]pyridine-2-carboxamide]: 7.94%.
Under `COc1ccc(-c2cnc3ccccc3n2)cc1NC(=O)c1ccco1` [compound 54, N-[2-methoxy-5-(2-quinoxalinyl)phenyl]-2-furamide] stands 7.83%; under `Cc1cccn2c(=O)c3cc(C(=O)NC4CCCC4)sc3nc12` [compound 55, N-cyclopentyl-9-methyl-4-oxo-4H-pyrido[1,2-a]thieno[2,3-d] pyrimidine-2-carboxamide], 7.75%.
Under `O=C(CSc1nnc2ccc3ccccc3n12)Nc1ccccc1F` [compound 56, N-(2-fluorophenyl)-2-([1,2,4]triazolo[4,3-a]quinolin-1-ylthio)acetamide] stands 7.69%; under `CCN(CC)C(=O)c1ccc(-c2ccc(N3CCOCC3)c3ccccc23)nn1` [compound 57], 7.64%; under `COc1ccc(-c2nc3ccccc3s2)cc1NC(=O)c1cccnc1` [compound 58, N-[5-(1,3-benzothiazol-2-yl)-2-methoxyphenyl] nicotinamide], 7.63%.
For the compound `Cn1nc(-c2ccc(C(=O)N3CCCCC3)cc2)c2ccccc2c1=O` [compound 59, 2-methyl-4-[4-(1-piperidinylcarbonyl)phenyl]-1(2H)-phthalazinone], the “Avg Normalized % maximal activity” value was determined as 7.59%.
Next, `Cc1ccc2c(Cl)c(C(=O)Nc3cccnc3)sc2c1` [compound 60, 3-chloro-6-methyl-N-3-pyridinyl-1-benzothiophene-2-carboxamide]: 7.53%; `CC1(C)CC(=O)c2sc(NC(=O)c3ccccc3F)nc2C1` [compound 61, N-(5,5-dimethyl-7-oxo-4,5,6,7-tetrahydro-1,3-benzothiazol-2-yl)-2-fluorobenzamide]: 7.27%.
Under `O=C(Cc1cccc2ccccc12)Nc1nncs1` [compound 62, 2-(1-naphthyl)-N-1,3,4-thiadiazol-2-ylacetamide] stands 7.27%; under `COc1ccc(OC)c(Nc2nc(=O)c3cccnc3s2)c1` [compound 63, 2-[(2,5-dimethoxyphenyl)amino]-4H-pyrido[3,2-e][1,3] thiazin-4-one], 7.19%; under `CCOc1cc(-c2noc(CCCC(=O)N3CCCCC3)n2)ccc1OC` [compound 64, 1-{4-[3-(3-ethoxy-4-methoxyphenyl)-1,2,4-oxadiazol-5-yl]butanoyl}piperidine], 7.14%.
Next, `Cc1ccnc(NC(=O)c2cccc(NC(=O)c3ccco3)c2)c1` [compound 65, N-(3-{[(4-methyl-2-pyridinyl)amino]carbonyl}phenyl)-2-furamide]: 7.09%.
Take `CCC(=O)c1ccc(/C=C/c2nc3ccccc3n2C)o1` [compound 66, 1-{5-[2-(1-methyl-1H-benzimidazol-2-yl)vinyl]-2-furyl}-1-propanone]: the “Avg Normalized % maximal activity” value was 7.04%.
Under `COc1ccc(-c2cc3ccccc3oc2=O)cc1NC(=O)c1cccs1` [compound 67, N-[2-methoxy-5-(2-oxo-2H-chromen-3-yl)phenyl]-2-thiophenecarboxamide] stands 6.98%; under `CC(C)(C)c1nnc(NC(=O)c2cccc(Cl)c2)s1` [compound 68], 6.79%.
Under `COc1ccccc1CN1CCN(Cc2ccccn2)CC1` [compound 69, 1-(2-methoxybenzyl)-4-(2-pyridinylmethyl) piperazine] stands 6.74%; under `O=C(Nc1ccc(C(=O)N2CCCCC2)cc1)c1cc2ccccc2oc1=O` [compound 70, 2-oxo-N-[4-(1-piperidinylcarbonyl)phenyl]-2H-chromene-3-carboxamide], 6.71%; under `O=C(CCCN1C(=O)c2cccc3cccc(c23)C1=O)N1CCCCC1` [compound 71, 2-[4-oxo-4-(1-piperidinyl)butyl]-1H-benzo[de]isoquinoline-1,3(2H)-dione], 6.67%.
Take `COc1cc2c(cc1OC)-c1cc3ccc(OC)c(OC)c3c[n+]1CC2` [compound 72]: the “Avg Normalized % maximal activity” value came out at 6.56%.
Under `COC(=O)c1cc(NC(=O)c2cc3ccccc3o2)ccc1N1CCOCC1` [compound 73, methyl 5-[(1-benzofuran-2-ylcarbonyl)amino]-2-morpholin-4-ylbenzoate] stands 6.43%; under `C#C[C@]1(O)CC[C@H]2[C@@H]3CCC4=C(CCC(=O)C4)[C@H]3CC[C@@]21C` [compound 74], 6.35%.
Under `Cc1cc(C)cc(C(=O)Nc2cccc(NC(=O)c3ccco3)c2)c1` [compound 75, N-{3-[(3,5-dimethylbenzoyl)amino]phenyl}-2-furamide] stands 6.27%.
Next, `O=C(Nc1cccc(NC(=O)c2ccco2)c1)c1cccc(Br)c1` [compound 76, N-{3-[(3-bromobenzoyl)amino]phenyl}-2-furamide]: 6.23%; `CC(C(=O)O)c1ccc(-c2ccccc2)c(F)c1` (centres unmarked) [compound 77]: 6.18%; `COc1ccc(NC(=O)COc2ccc3ccc(=O)oc3c2)cc1` [compound 78, N-(4-methoxyphenyl)-2-[(2-oxo-2H-chromen-7-yl)oxy]acetamide]: 6.16%.
For the compound `CCOC(=O)c1ccc(NC(=O)c2nn(CC)cc2Br)cc1` [compound 79, ethyl 4-{[(4-bromo-1-ethyl-1H-pyrazol-3-yl)carbonyl]amino}benzoate], the “Avg Normalized % maximal activity” value was determined as 6.01%.
Next, `COc1ccc(Cl)cc1C(=O)Nc1cccc(-c2nnc(-c3ccco3)o2)c1` [compound 80, 5-chloro-N-{3-[5-(2-furyl)-1,3,4-oxadiazol-2-yl]phenyl}-2-methoxybenzamide]: 5.99%; `C1CCN2C[C@@H]3C[C@@H](CN4CCCC[C@@H]34)[C@H]2C1.O=S(=O)(O)O` [compound 81]: 5.81%.
Under `O=P1(N(CCCl)CCCl)NCCCO1` (centres unmarked) [compound 82] stands 5.76%.
Under `CCOc1ccccc1C(=O)Nc1nc(C)c(C(=O)N(C)C)s1` [compound 83, 2-[(2-ethoxybenzoyl)amino]-N,N,4-trimethyl-1,3-thiazole-5-carboxamide] stands 5.75%; under `NCCc1cc(O)c(O)cc1O` [compound 84], 5.72%.
With `O=C(Nc1ccc2oc(-c3cccnc3)nc2c1)c1ccc(Br)o1` [compound 85, 5-bromo-N-[2-(3-pyridinyl)-1,3-benzoxazol-5-yl]-2-furamide], the “Avg Normalized % maximal activity” value was determined as 5.64%.
Under `Cc1ccc(C(=O)Nc2ccc(C(=O)N3CCCCC3)cc2)cc1` [compound 86, 4-methyl-N-[4-(1-piperidinylcarbonyl)phenyl]benzamide] stands 5.63%; under `COc1ccc(Cl)cc1NC(=O)c1ccc2nccnc2c1` [compound 87, N-(5-chloro-2-methoxyphenyl)-6-quinoxaline-carboxamide], 5.62%; under `COc1ccc(NC(=O)C(C)Oc2ccc3oc(=O)cc(C)c3c2)cc1` (centres unmarked) [compound 88, N-(4-methoxyphenyl)-2-[(4-methyl-2-oxo-2H-chromen-6-yl)oxy]propanamide], 5.42%.
Next, `COc1cccc(C(=O)Nc2ccc(-c3nc4ncccc4o3)cc2C)c1` [compound 89, 3-methoxy-N-(2-methyl-4-[1,3]oxazolo [4,5-b]pyridin-2-ylphenyl)benzamide]: 5.35%; `CSc1ccccc1C(=O)Nc1nc(=O)c2ccccc2[nH]1` [compound 90, 2-(methylthio)-N-(4-oxo-1,4-dihydro-2-quinazolinyl)benzamide]: 5.22%.
As to `CCOC(=O)c1ccc(NC(=O)c2nc(SC)ncc2Cl)cc1` [compound 91, ethyl 4-({[5-chloro-2-(methylthio)-4-pyrimidinyl]carbonyl}amino)benzoate], the “Avg Normalized % maximal activity” value amounted to 5.19%.
Turning to `COc1ccc(-c2cnc3ccccc3n2)cc1NC(=O)c1cccs1` [compound 92, N-(2-methoxy-5-(2-quinoxalinyl)phenyl]-2-thiophenecarboxamide], the “Avg Normalized % maximal activity” value came to 5.16%.
Next, `Cc1cc(C)cc(C(=O)Nc2nnc(C)s2)c1` [compound 94, 3,5-dimethyl-N-(5-methyl-1,3,4-thiadiazol-2-yl)benzamide]: 5.01%.
